Source: patent US9193731B2, “Antimicrobial compounds and methods of making and using the same” (Melinta Therapeutics, Inc., priority 2009, dated 2015)

System: Escherichia coli strain ATCC25922
Assay: standard microdilution assay to determine minimum inhibitory concentrations (MICs)
Format: cell-based
Conditions: for E. coli ATCC25922 MIC: Escherichia coli strain ATCC25922, microdilution; for MIC: Escherichia coli, ATCC25922, Escherichia coli strain ATCC25922, microdilution, read-out: E. coli ATCC25922 MIC
Procedure, shortened: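 Broth microdilution MIC against E. coli ATCC25922, following CLSI protocols, typically in a 100 microliter final volume. Results reported as +/− relative to a 16 micrograms/ml cutoff.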

## N=C(N)NCCCNCc1ccc(-n2cc3cc(-c4ccc(S(=O)(=O)N(Cc5csc(-c6ccc(C(F)(F)F)cc6)n5)C5CCNCC5)cc4)[nH]c3nc2=O)cc1 [Compound 786]
  E. coli ATCC25922 MIC: + (a “+” indicates that the compound has an MIC value of 16 micrograms/ml or less)

## COc1ccc(CN(C2CCNCC2)S(=O)(=O)c2ccc(-c3cc4cn(-c5ccc(CNCCCNC(=N)N)cc5)c(=O)nc4[nH]3)cc2)cc1[N+](=O)[O-] [Compound 787]
  E. coli ATCC25922 MIC: + (a “+” indicates that the compound has an MIC value of 16 micrograms/ml or less)

## N=C(N)NCCCNCc1ccc(-c2cn3cc(-c4ccc(S(=O)(=O)N5CCNCC5)cc4)[nH]c3nc2=O)cc1 [Compound 788]
  MIC: < 16 µg/mL

## NCCCNCc1ccc(-c2cn3cc(-c4ccc(S(=O)(=O)N5CCNCC5)cc4)[nH]c3nc2=O)cc1 [Compound 789]
  MIC: < 16 µg/mL

## N=C(N)NCCCNCc1ccc(-c2cn3cc(-c4ccc(S(=O)(=O)N5CCN(C(=O)OCc6ccccc6)CC5)cc4)[nH]c3nc2=O)cc1 [Compound 790]
  E. coli ATCC25922 MIC: + (a “+” indicates that the compound has an MIC value of 16 micrograms/ml or less)

## NCCCNCc1ccc(-c2cn3cc(-c4ccc(S(=O)(=O)N5CCN(C(=O)OCc6ccccc6)CC5)cc4)[nH]c3nc2=O)cc1 [Compound 791]
  MIC: > 16 µg/mL

## CN(C)C(=O)c1cc(-c2cc3cn(-c4ccc(CNCCCN)cc4)c(=O)nc3[nH]2)cc(N2CCNCC2)c1 [Compound 796]
  MIC: < 16 µg/mL

## CN(C)C(=O)c1cc(-c2cc3cn(-c4ccc(CNCCCNC(=N)N)cc4)c(=O)nc3[nH]2)cc(N2CCNCC2)c1 [Compound 797]
  MIC: < 16 µg/mL

## NCCCNCc1ccc(-c2cn3cc(-c4ccc(C(=O)NC5CCOCC5)cc4)[nH]c3nc2=O)cc1 [Compound 799]
  MIC: > 16 µg/mL

## N=C(N)NCCCNCc1ccc(-n2cc3cc(-c4ccc(S(=O)(=O)N(CCCc5cccnc5)C5CCNCC5)cc4)[nH]c3nc2=O)cc1 [Compound 801]
  E. coli ATCC25922 MIC: + (a “+” indicates that the compound has an MIC value of 16 micrograms/ml or less)

## COCCOCCN(C1CCNCC1)S(=O)(=O)c1ccc(-c2cc3cn(-c4ccc(CNCCCNC(=N)N)cc4)c(=O)nc3[nH]2)cc1 [Compound 802]
  E. coli ATCC25922 MIC: + (a “+” indicates that the compound has an MIC value of 16 micrograms/ml or less)

## N=C(N)NCCCNCc1ccc(-n2cc3cc(-c4ccc(S(=O)(=O)N(Cc5cc(-c6ccc(Cl)cc6)on5)C5CCNCC5)cc4)[nH]c3nc2=O)cc1 [Compound 803]
  E. coli ATCC25922 MIC: + (a “+” indicates that the compound has an MIC value of 16 micrograms/ml or less)

## N=C(N)NCCCNCc1ccc(-n2cc3cc(-c4ccc(S(=O)(=O)NC5CCCNC5)cc4)[nH]c3nc2=O)cc1 (stereo not drawn) [Compound 805]
  E. coli ATCC25922 MIC: + (a “+” indicates that the compound has an MIC value of 16 micrograms/ml or less)

## NCCCNCc1ccc(-n2cc3cc(-c4ccc(S(=O)(=O)NC5CCCNC5)cc4)[nH]c3nc2=O)cc1 (stereo not drawn) [Compound 807]
  E. coli ATCC25922 MIC: + (a “+” indicates that the compound has an MIC value of 16 micrograms/ml or less)

## N=C(N)NCCCNCc1ccc(-c2cn3cc(-c4ccc(C(=O)N5CCC(N)CC5)cc4)[nH]c3nc2=O)cc1 [Compound 808]
  E. coli ATCC25922 MIC: + (a “+” indicates that the compound has an MIC value of 16 micrograms/ml or less)

## NCCCCOc1ccc(-c2cn3cc(-c4ccc(S(=O)(=O)N5CCNCC5)cc4)[nH]c3nc2=O)cc1 [Compound 809]
  E. coli ATCC25922 MIC: − (a “−” indicates that the compound has an MIC value greater than 16 micrograms/ml)

## NCCCCOc1ccc(-c2cn3cc(-c4ccc(Br)cc4)[nH]c3nc2=O)cc1 [Compound 810]
  MIC: > 16 µg/mL

## N=C(N)NCCCCOc1ccc(-c2cn3cc(-c4ccc(Br)cc4)[nH]c3nc2=O)cc1 [Compound 813]
  MIC: > 16 µg/mL

## NCCCNCc1ccc(-n2cc3cc(CCN[C@@H]4CCCNC4)[nH]c3nc2=O)cc1 [Compound 814]
  MIC: < 16 µg/mL

## N=C(N)NCCCNCc1ccc(-n2cc3cc(CCN[C@@H]4CCCNC4)[nH]c3nc2=O)cc1 [Compound 815]
  MIC: < 16 µg/mL

## NCCCNCc1ccc(-n2cc3cc(CCN[C@H]4CCCNC4)[nH]c3nc2=O)cc1 [Compound 816]
  MIC: < 16 µg/mL

## N=C(N)NCCCNCc1ccc(-n2cc3cc(CCN[C@H]4CCCNC4)[nH]c3nc2=O)cc1 [Compound 817]
  MIC: < 16 µg/mL

## CC1CN(C(=O)c2ccc(-c3cn4cc(-c5ccc(CNCCCN)cc5)c(=O)nc4[nH]3)cc2)CC(C)N1 (stereo not drawn) [Compound 819]
  E. coli ATCC25922 MIC: + (a “+” indicates that the compound has an MIC value of 16 micrograms/ml or less)

## CC1CN(C(=O)c2ccc(-c3cn4cc(-c5ccc(CNCCCN)cc5)c(=O)nc4[nH]3)cc2)CCN1 (stereo not drawn) [Compound 821]
  E. coli ATCC25922 MIC: + (a “+” indicates that the compound has an MIC value of 16 micrograms/ml or less)

## CC1CN(C(=O)c2ccc(-c3cn4cc(-c5ccc(CNCCCNC(=N)N)cc5)c(=O)nc4[nH]3)cc2)CCN1 (stereo not drawn) [Compound 822]
  E. coli ATCC25922 MIC: + (a “+” indicates that the compound has an MIC value of 16 micrograms/ml or less)

## NCCCNCc1ccc(-n2cc3cc(-c4cccc(S(=O)(=O)NC5CCNCC5)c4)[nH]c3nc2=O)cc1 [Compound 823]
  E. coli ATCC25922 MIC: + (a “+” indicates that the compound has an MIC value of 16 micrograms/ml or less)

## NCCCCOc1ccc(-c2cn3cc(-c4ccc(S(=O)(=O)NC5CCNCC5)cc4)[nH]c3nc2=O)cc1 [Compound 824]
  E. coli ATCC25922 MIC: − (a “−” indicates that the compound has an MIC value greater than 16 micrograms/ml)

## NCCCNCc1ccc(-c2cn3cc(-c4ccc(C(=O)N5CCN(CCF)CC5)cc4)[nH]c3nc2=O)cc1 [Compound 825]
  E. coli ATCC25922 MIC: − (a “−” indicates that the compound has an MIC value greater than 16 micrograms/ml)

## N=C(N)NCCCNCc1ccc(-c2cn3cc(-c4ccc(C(=O)N5CCN(CCF)CC5)cc4)[nH]c3nc2=O)cc1 [Compound 826]
  E. coli ATCC25922 MIC: − (a “−” indicates that the compound has an MIC value greater than 16 micrograms/ml)

## NCCCNCc1ccc(-c2cn3cc(-c4ccc(C(=O)NCCO)cc4)[nH]c3nc2=O)cc1 [Compound 827]
  MIC: > 16 µg/mL

## N=C(N)NCCCNCc1ccc(-c2cn3cc(-c4ccc(C(=O)NCCO)cc4)[nH]c3nc2=O)cc1 [Compound 828]
  E. coli ATCC25922 MIC: + (a “+” indicates that the compound has an MIC value of 16 micrograms/ml or less)

## NCCCCOc1ccc(-c2cn3cc(-c4ccc(C(=O)NC5CCNCC5)cc4)[nH]c3nc2=O)cc1 [Compound 829]
  MIC: > 16 µg/mL

## NCCCNCc1ccc(-n2cc3cc(-c4ccc(S(=O)(=O)N(CC5CCOCC5)C5CCCNC5)cc4)[nH]c3nc2=O)cc1 (stereo not drawn) [Compound 830]
  MIC: > 16 µg/mL

## NCCCNCc1ccc(-n2cc3cc(-c4ccc(S(=O)(=O)N(CC5CCOCC5)C5CCCNC5)cc4)[nH]c3nc2=O)cc1 (stereo not drawn) [Compound 831]
  E. coli ATCC25922 MIC: + (a “+” indicates that the compound has an MIC value of 16 micrograms/ml or less)

## N=C(N)NCCCNCc1ccc(-n2cc3cc(-c4cccc(S(=O)(=O)NC5CCNCC5)c4)[nH]c3nc2=O)cc1 [Compound 836]
  MIC: < 16 µg/mL

## CCn1cc(CCCN(C2CCNCC2)S(=O)(=O)c2ccc(-c3cc4cn(-c5ccc(CNCCCNC(=N)N)cc5)c(=O)nc4[nH]3)cc2)cn1 [Compound 837]
  E. coli ATCC25922 MIC: + (a “+” indicates that the compound has an MIC value of 16 micrograms/ml or less)

## N=C(N)NCCCNCc1ccc(-n2cc3cc(-c4ccc(S(=O)(=O)N(CCCc5ccncc5)C5CCNCC5)cc4)[nH]c3nc2=O)cc1 [Compound 838]
  E. coli ATCC25922 MIC: + (a “+” indicates that the compound has an MIC value of 16 micrograms/ml or less)

## N=C(N)NCCCNCc1ccc(-n2cc3cc(-c4ccc(S(=O)(=O)N(CCCN5CCCCC5)C5CCNCC5)cc4)[nH]c3nc2=O)cc1 [Compound 839]
  E. coli ATCC25922 MIC: + (a “+” indicates that the compound has an MIC value of 16 micrograms/ml or less)

## N=C(N)NCCCNCc1ccc(-n2cc3cc(-c4ccc(S(=O)(=O)N(CCCC5CCCC5)C5CCNCC5)cc4)[nH]c3nc2=O)cc1 [Compound 840]
  E. coli ATCC25922 MIC: + (a “+” indicates that the compound has an MIC value of 16 micrograms/ml or less)

## Cn1c(CCCN(C2CCNCC2)S(=O)(=O)c2ccc(-c3cc4cn(-c5ccc(CNCCCNC(=N)N)cc5)c(=O)nc4[nH]3)cc2)nc2ccccc21 [Compound 841]
  E. coli ATCC25922 MIC: + (a “+” indicates that the compound has an MIC value of 16 micrograms/ml or less)

## N#CCCCN(C1CCNCC1)S(=O)(=O)c1ccc(-c2cc3cn(-c4ccc(CNCCCNC(=N)N)cc4)c(=O)nc3[nH]2)cc1 [Compound 842]
  E. coli ATCC25922 MIC: + (a “+” indicates that the compound has an MIC value of 16 micrograms/ml or less)

## N=C(N)NCCCNCc1ccc(-n2cc3cc(-c4ccc(S(=O)(=O)N(CCCC(N)=O)C5CCNCC5)cc4)[nH]c3nc2=O)cc1 [Compound 843]
  E. coli ATCC25922 MIC: + (a “+” indicates that the compound has an MIC value of 16 micrograms/ml or less)

## NCCCNCc1ccc(-n2cc3cc(-c4ccc(S(=O)(=O)N(CC5COCCO5)C5CCCNC5)cc4)[nH]c3nc2=O)cc1 (stereo not drawn) [Compound 846]
  E. coli ATCC25922 MIC: + (a “+” indicates that the compound has an MIC value of 16 micrograms/ml or less)

## NCCCCOc1ccc(-c2cn3cc(-c4ccc(C(=O)N5CCNCC5)cc4)[nH]c3nc2=O)cc1 [Compound 847]
  E. coli ATCC25922 MIC: − (a “−” indicates that the compound has an MIC value greater than 16 micrograms/ml)

## N=C(N)NCCCCOc1ccc(-c2cn3cc(-c4ccc(C(=O)NC5CCN(C(=N)N)CC5)cc4)[nH]c3nc2=O)cc1 [Compound 848]
  E. coli ATCC25922 MIC: + (a “+” indicates that the compound has an MIC value of 16 micrograms/ml or less)

## N=C(N)NCCCNCc1ccc(-n2cc3cc(-c4ccc(S(=O)(=O)N(CC5COCCO5)C5CCCNC5)cc4)[nH]c3nc2=O)cc1 (stereo not drawn) [Compound 851]
  E. coli ATCC25922 MIC: + (a “+” indicates that the compound has an MIC value of 16 micrograms/ml or less)

## NCCCNCc1ccc(-n2cc3cc(-c4ccc(S(=O)(=O)NC5CCNCC5)cc4)[nH]c3nc2=O)cc1 [Compound 852]
  MIC: < 16 µg/mL

## CC1CN(S(=O)(=O)c2ccc(-c3cc4cn(-c5ccc(CNCCCN)cc5)c(=O)nc4[nH]3)cc2)CC(C)N1 (stereo not drawn) [Compound 853]
  E. coli ATCC25922 MIC: + (a “+” indicates that the compound has an MIC value of 16 micrograms/ml or less)
